Patent publication US20200085776A1, “Methods of Reducing C-Reactive Protein and/or Treating Cardiovascular Disease” (CARDAX, INC., priority 2018, published 2020)

Tested on: C-reactive protein (CRP)
Assay: CRP (hs-CRP) in blood, CHASE clinical study
Assay type: in vivo, human
Details: Group X 12 mg BID; for CRP Max / CRP Mean (SD) / CRP Median / CRP Min: V6 Week 12
Excerpt: This is a two-part study comprising Part I and Part II. Following screening, Part I consists of a randomized, double-blind, placebo controlled dosing period of up to 12 weeks. The study shall be conducted at one or more study sites in Hawaii. Approximately 360 subjects qualified after completion of screening procedures shall be randomized in a 1:1:1 ratio to one of three treatment groups, per Table 1.
The Part I 12-week double-blind dosing period commences with V2, including randomization and first dose of study product, and continues with study visits at Week 1-2 (V3), Week 4 (V4), Week 8 (V5), and Week 12 (V6). V6 procedures will conclude Part I.
Blood shall be obtained at each visit for CRP. The screening specimen shall be processed at the local lab and reported to the study staff for eligibility determination; CRP samples at V7 and V8 may also be processed locally and reported directly to study staff. Samples for CRP from V2 through V6 may be batched, processed, and reported as specified in the Laboratory Manual.
At each these visits, blood was obtained for measurement of CRP, among other parameters. Table 7A provides a summary of the CRP measurements (mg/L) at each visit and Table 7B provides a summary of the differences of CRP levels between V2 and V6.

[1] = subjects with DM2, hypertension and hyperlipidemia but not CAD
[2] = subjects with Diabetes Mellitus Type II
[3] = subjects with baseline level greater than 2.0
[4] = baseline to Week 12, all subjects
[5] = baseline to Week 12, subjects not taking a hypertension agent
[6] = baseline to Week 12, subjects not taking any cardiac therapeutic agent
[7] = baseline to Week 12, subjects not taking statins
[8] = baseline to Week 12, subjects taking an anti-diabetic agent
[9] = baseline to Week 12, subjects with CAD
[10] = baseline to Week 12, subjects with DM2, hypertension and hyperlipidemia but not CAD
[11] = baseline to Week 12, subjects with Diabetes Mellitus Type II
[12] = baseline to Week 12, subjects with baseline level greater than 2.0
[13] = baseline to Week 12, subjects with hyperlipidemia

CC1=C(/C=C/C(C)=C/C=C/C(C)=C/C=C/C=C(C)/C=C/C=C(C)/C=C/C2=C(C)C(=O)C(O)CC2(C)C)C(C)(C)CC(O)C1=O (stereo not drawn) [Astaxanthin, astaxanthin]
CRP Max [1]: 6.80 mg/L
CRP Mean (SD) [1]: 2.95 (2.32) mg/L
CRP Median [1]: 1.91 mg/L
CRP Min [1]: 1.02 mg/L
CRP Max [2]: 6.80 mg/L
CRP Mean (SD) [2]: 2.91 (2.07) mg/L
CRP Median [2]: 2.32 mg/L
CRP Min [2]: 1.02 mg/L
CRP Max [3]: 11.04 mg/L
CRP Mean (SD) [3]: 3.69 (3.14) mg/L
CRP Median [3]: 2.71 mg/L
CRP Min [3]: 0.22 mg/L
CRP Max (subjects with hyperlipidemia): 11.04 mg/L
CRP Mean (SD) (subjects with hyperlipidemia): 3.90 (3.38) mg/L
CRP Median (subjects with hyperlipidemia): 2.71 mg/L
CRP Min (subjects with hyperlipidemia): 1.02 mg/L
CRP V2 to V6 % Change Max [4]: 122.6%
CRP V2 to V6 % Change Mean [4]: −21.3%
CRP V2 to V6 % Change Median [4]: −31.8%
CRP V2 to V6 % Change Min [4]: −89.8%
CRP V2 to V6 Change Max [4]: 6.08 mg/L
CRP V2 to V6 Change Mean [4]: -2.07 mg/L
CRP V2 to V6 Change Median [4]: -1.57 mg/L
CRP V2 to V6 Change Min [4]: -11.1 mg/L
CRP V2 to V6 % Change Max [5]: −25.8, −25.8%
CRP V2 to V6 % Change Mean (SD) [5]: −25.8%
CRP V2 to V6 % Change Median [5]: −25.8%
CRP V2 to V6 % Change Min [5]: −25.8, −25.8%
CRP V2 to V6 Change Max [5]: −0.94, −0.94 mg/L
CRP V2 to V6 Change Mean (SD) [5]: -0.94 mg/L
CRP V2 to V6 Change Median [5]: -0.94 mg/L
CRP V2 to V6 Change Min [5]: −0.94, −0.94 mg/L
CRP V2 to V6 % Change Max [6]: −25.8%
CRP V2 to V6 % Change Mean (SD) [6]: −56.6 (29.46) %
CRP V2 to V6 % Change Median [6]: −61.9%
CRP V2 to V6 % Change Min [6]: −89.8%
CRP V2 to V6 Change Max [6]: -0.37 mg/L
CRP V2 to V6 Change Mean (SD) [6]: −4.28 (4.63) mg/L
CRP V2 to V6 Change Median [6]: -1.94 mg/L
CRP V2 to V6 Change Min [6]: -11.1 mg/L
CRP V2 to V6 % Change Max [7]: 122.6%
CRP V2 to V6 % Change Mean (SD) [7]: 2.34 (88.58) %
CRP V2 to V6 % Change Median [7]: −25.6%
CRP V2 to V6 % Change Min [7]: −89.8%
CRP V2 to V6 Change Max [7]: 6.08 mg/L
CRP V2 to V6 Change Mean (SD) [7]: −0.18 (4.04) mg/L
CRP V2 to V6 Change Median [7]: -0.80 mg/L
CRP V2 to V6 Change Min [7]: -5.89 mg/L
CRP V2 to V6 % Change** Max [8]: −26.6%
CRP V2 to V6 % Change** Mean (SD) [8]: −52.9 (20.70) %
CRP V2 to V6 % Change** Median [8]: −55.7%
CRP V2 to V6 % Change** Min [8]: −78.8%
CRP V2 to V6 Change Max [8]: -0.37 mg/L
CRP V2 to V6 Change Mean (SD) [8]: −4.61 (4.14) mg/L
CRP V2 to V6 Change Median [8]: -3.76 mg/L
CRP V2 to V6 Change Min [8]: -11.1 mg/L
CRP V2 to V6 % Change Max [9]: −68.4%
CRP V2 to V6 % Change Mean (SD) [9]: −68.4%
CRP V2 to V6 % Change Median [9]: −68.4%
CRP V2 to V6 % Change Min [9]: −68.48%
CRP V2 to V6 Change Max [9]: −5.89, −5.89 mg/L
CRP V2 to V6 Change Mean (SD) [9]: -5.89 mg/L
CRP V2 to V6 Change Median [9]: -5.89 mg/L
CRP V2 to V6 Change Min [9]: −5.89, −5.89 mg/L
CRP V2 to V6 % Change Max [10]: −26.6%
CRP V2 to V6 % Change Mean (SD) [10]: −49.7 (21.51) %
CRP V2 to V6 % Change Median [10]: −49.5%
CRP V2 to V6 % Change Min [10]: −78.8%
CRP V2 to V6 Change Max [10]: -0.37 mg/L
CRP V2 to V6 Change Mean (SD) [10]: −4.35 (4.57) mg/L
CRP V2 to V6 Change Median [10]: -1.63 mg/L
CRP V2 to V6 Change Min [10]: -11.1 mg/L
CRP V2 to V6 % Change Max [11]: −26.6%
CRP V2 to V6 % Change Mean (SD) [11]: −52.9 (20.70) %
CRP V2 to V6 % Change Median [11]: −55.7%
CRP V2 to V6 % Change Min [11]: −78.8%
CRP V2 to V6 Change Max [11]: -0.37 mg/L
CRP V2 to V6 Change Mean (SD) [11]: −4.61 (4.14) mg/L
CRP V2 to V6 Change Median [11]: -3.76 mg/L
CRP V2 to V6 Change Min [11]: -11.1 mg/L
CRP V2 to V6 % Change Max [12]: 122.6%
CRP V2 to V6 % Change Mean (SD) [12]: −20.8 (73.37) %
CRP V2 to V6 % Change Median [12]: −40.7%
CRP V2 to V6 % Change Min [12]: −89.8%
CRP V2 to V6 Change Max [12]: 6.08 mg/L
CRP V2 to V6 Change Mean (SD) [12]: −2.24 (4.83) mg/L
CRP V2 to V6 Change Median [12]: -1.60 mg/L
CRP V2 to V6 Change Min [12]: -11.1 mg/L
CRP V2 to V6 % Change Max [13]: 122.6%
CRP V2 to V6 % Change Mean (SD) [13]: −27.5 (63.84) %
CRP V2 to V6 % Change Median [13]: −40.7%
CRP V2 to V6 % Change Min [13]: −78.8%
CRP V2 to V6 Change Max [13]: 6.08 mg/L
CRP V2 to V6 Change Mean (SD) [13]: −2.81 (5.17) mg/L
CRP V2 to V6 Change Median [13]: -1.60 mg/L
CRP V2 to V6 Change Min [13]: -11.1 mg/L
